Measured values from patent US7285555B2, “6-aryl-7-halo-imidazo[1,2-a]pyrimidines as anticancer agents” (Wyeth Holdings Corporation, priority 2003, dated 2007).

Columns and labels:
S1-M1 cells = experiment: MTS cytotoxicity test procedure with S1-M1 cells; format: cell-based, human; settings: for Ratio: IC50 on S1-M1 cells/IC50 on S1 cells
Source text: (§1) Human cancer cell lines, unless otherwise noted, are obtained from the American Type Culture Collection (Rockville, Md.). The following drug-sensitive parental cell lines, and their derived drug-resistant counterparts, are obtained from the originators as listed: (a) S1 (parental line from a subclone of human colon carcinoma line LS174T) and derived S1-M1-3.2 (herein called S1-M1) which expresses the MXR drug transporter protein, are provided by Dr. L. Greenberger, Wyeth Research (Rabindran, S. K., He, H., Singh, M., Brown, E., Collins, K. I., Annable, T., and Greenberger, L. M. Reversal of a novel multidrug resistance mechanism in human colon carcinoma cells by fumitremorgin C. Cancer Res., 58: 5850-5858,1998); (b) parental HL-60 human promyelocytic leukemia line and derived HL-60/ADR, which expresses the MRP1 drug transporter protein, are provided by Dr. M. Center, University of Kansas (McGrath, T., and Center, M. S. Adriamycin resistance in HL60 cells in the absence of detectable P-glycoprotein. Biochem. Biophys. […] J. Biol. Chem., 261: 7762-7770, 1986) via Dr. L. Greenberger, Wyeth Research.
(§2) The MTS assay, which is sold in kit form by Promega (Madison, Wis.; CellTiter 96 AQueous Non-Radioactive Cell Proliferation Assay), is based on the conversion by viable cells, but not by dead cells, of the tetrazolium salt, MTS (3-(4,5-dimethylthiazol-2-yl)-5-(3-carboxymethoxyphenyl)-2-(4-sulphophenyl)-2H-tetrazolium, inner salt), into a water-soluble colored formazan which is detected by spectrophotometry. Compounds are tested at nine concentrations, in order to determine IC50 values. For the test procedure, cells are harvested by trypsinization (or, in the case of non-adherent cells, by simple resuspension), washed, counted and distributed to wells of 96-well flat-bottom microtiter plates at 1000 cells per well in 200 μL of medium. In addition, one row of wells on a separate plate receives cells as above (“time 0” plate). All plates are incubated at 370 in humidified 5% CO2 in air for about 24 hr.
On day 2, compounds for test are diluted and added to wells. Compounds are dissolved in DMSO at 10 mg/mL. For each compound, nine serial 2-fold dilutions are prepared in DMSO. Ten μL of each dilution in DMSO is transferred to 100 μL of medium, mixed well, and then 5 μL of this dilution is transferred in quadruplicate to wells containing cells. […] Plates are returned to the incubator for three days. At the time of drug addition to the experimental plates, the MTS assay is run on the “time 0” plate.
(§3) After three days of culture with test compounds (day 5 overall), the MTS assay is done on all wells of the experimental plates. The absorbance values of the quadruplicate sample wells are averaged and divided by the average of the “time 0” values. […]

KB-V1 cells = experiment: MTS cytotoxicity test procedure with KB-V1 cells; format: cell-based, human; settings: MTS assay
Source text: as §1
(§4) The MTS assay, which is sold in kit form by Promega (Madison, Wis.; CellTiter 96 AQueous Non-Radioactive Cell Proliferation Assay), is based on the conversion by viable cells, but not by dead cells, of the tetrazolium salt, MTS (3-(4,5-dimethylthiazol-2-yl)-5-(3-carboxymethoxyphenyl)-2-(4-sulphophenyl)-2H-tetrazolium, inner salt), into a water-soluble colored formazan which is detected by spectrophotometry. Compounds are tested at nine concentrations, in order to determine IC50 values. For the test procedure, cells are harvested by trypsinization (or, in the case of non-adherent cells, by simple resuspension), washed, counted and distributed to wells of 96-well flat-bottom microtiter plates at 1000 cells per well in 200 μL of medium. […]
as §3

COLO 205 cells = experiment: MTS cytotoxicity test procedure with COLO 205 cells; format: cell-based; settings: Homo sapiens, 72 h, MTS assay, three days of culture
Description: as §2
On day 2, compounds for test are diluted and added to wells. Compounds are dissolved in DMSO at 10 mg/mL. For each compound, nine serial 2-fold dilutions are prepared in DMSO. Ten μL of each dilution in DMSO is transferred to 100 μL of medium, mixed well, and then 5 μL of this dilution is transferred in quadruplicate to wells containing cells. The final high concentration of each compound is typically 1-5 μM. Plates are returned to the incubator for three days. At the time of drug addition to the experimental plates, the MTS assay is run on the “time 0” plate. This gives the “time 0 MTS value” which is related to the number of viable cells per well at the time of drug addition.
After three days of culture with test compounds (day 5 overall), the MTS assay is done on all wells of the experimental plates. The absorbance values of the quadruplicate sample wells are averaged and divided by the average of the “time 0” values. The average of control wells without drug, divided by the average “time 0” value, gives the maximal relative increase in MTS color yield due to cell growth during the final three days of culture. The average of control wells with high drug concentration, divided by the “time 0” value, gives the minimal relative color yield for cells that were completely killed. The nine values for each compound are plotted against concentration, and the concentration that produces a relative color yield half way between the maximum and minimum is taken as the IC50 value.
COLO 205 is a human colon carcinoma cell line that is used for comparative testing of the examples of this invention and several reference compounds (Table 1). This line is sensitive to paclitaxel and vincristine.

KB cells = experiment: MTS cytotoxicity test procedure with KB cells; format: cell-based; settings: Homo sapiens, MTS assay, means of 2 independent experiments
Source text: (§5) Human cancer cell lines, unless otherwise noted, are obtained from the American Type Culture Collection (Rockville, Md.). […]
as §4, with “Compounds are tested at nine concentrations, in order to determine IC50 values.” left out
as §3

HL-60 cells = experiment: MTS cytotoxicity test procedure with HL-60 cells; format: cell-based; settings: Homo sapiens, MTS assay, means of 2 independent experiments
Source text: as §5
as §4, with “Compounds are tested at nine concentrations, in order to determine IC50 values.” left out
as §3

KB-8-5 cells = experiment: MTS cytotoxicity test procedure with KB-8-5 cells; format: cell-based, human; settings: MTS assay
Source text: as §5
as §4, with “Compounds are tested at nine concentrations, in order to determine IC50 values.” left out
as §3

CN(C)CCCOc1cc(F)c(-c2c(Cl)nc3nccn3c2C2CCCCCC2)c(F)c1 [Example 6, 3-[4-(7-Chloro-5-cycloheptylimidazo[1,2-a]pyrimidin-6-yl)-3,5-difluorophenoxy]-N,N-dimethylpropan-1-amine]
IC50 (S1-M1 cells; Homo sapiens, MTS assay, S1-M1 cells, means of 2 independent experiments): 68 nM
Ratio (S1-M1 cells): 1.1
Ratio (S1-M1 cells; listed as example 6): no resistance
IC50 (KB-V1 cells; Homo sapiens, KB-V1, KB VI cells, means of 2 independent experiments): 204 nM
Ratio VI/KB (KB-V1 cells; IC50 on KB VI cells/IC50 on KB cells): 4.6
IC50 (COLO 205 cells): 45 nM
IC50 (KB cells): 44 nM
IC50 (HL-60 cells): 53 nM
IC50 (KB-8-5 cells; Homo sapiens, KB 8.5 cells, means of 2 independent experiments): 63 nM
Ratio 8.5/KB (KB-8-5 cells; IC50 on KB 8.5 cells/IC50 on KB cells): 1.4
